Structures can show the parent of a compound that is named as a salt. Where two headings read alike, the source gives them in different places.
How the values were obtained:
[1] = system: lung cancer cells (line MV522); assay: Cancer cell proliferation (MV522) assay (MTT); format: cell-based; conditions: MV522
Method: The protocol for assessing cellular proliferation in cancer cells is similar to that used for assessments in HUVEC cells. Two thousand lung cancer cells (line MV522, acquired from American Tissue Cultural Collection) were seeded in growth media (RPMI1640 medium supplemented with 2 mM glutamine and 10% FBS). Cells are allowed to attach for 1 day prior to addition of test agents and/or vehicles. Cells are treated simultaneously with the same test agents used in the HUVEC assay. Cellular proliferation is quantified by MTT dye reduction assay 72 hours after exposure to test agents. The total length of the assay is 4 days vs. 5 for HUVEC cells because MV522 cells are not exposed to starvation medium.

[2] = target: T1, unphosphorylated VEGF-R2Δ50 (FLVK) (Homo sapiens, UniProt P35968, DEL940-989/E990V); assay: VEGF-R2 coupled spectrophotometric assay, unphosphorylated construct (FLVK); format: biochemical; conditions: for inhibition at 0.05 µM: @ 50 nM, read-out: FLVK percent inhibition;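 as to all read-outs here: Baculovirus-expressed cytosolic kinase domain, ADP formation linked via pyruvate kinase and lactate dehydrogenase to NADH oxidation, read as falling absorbance at 340 nm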
T1 construct: VEGF-R2Δ50 contains residues 806-939 and 990-1171; made in house; host or cells: baculovirus/insect cells

[3] = system: human umbilical vein endothelial cells (HUVEC); assay: HUVEC proliferation assay (VEGF-stimulated, MTT); format: cell-based; conditions: Homo sapiens, read-out: HUVEC IC50
Method: This assay determines the ability of a test compound to inhibit the growth factor-stimulated proliferation of human umbilical vein endothelial cells (“HUVEC”). HUVEC cells (passage 3-4, Clonetics, Corp.) were thawed into EGM2 culture medium (Clonetics Corp) in T75 flasks. Fresh EGM2 medium was added to the flasks 24 hours later. Four or five days later, cells were exposed to another culture medium (F12K medium supplemented with 10% fetal bovine serum (FBS), 60 μg/ml endothelial cell growth supplement (ECGS), and 0.1 mg/ml heparin). Exponentially-growing HUVEC cells were used in experiments thereafter. Ten to twelve thousand HUVEC cells were plated in 96-well dishes in 100 μl of rich, culture medium (described above). The cells were allowed to attach for 24 hours in this medium. The medium was then removed by aspiration and 105 μl of starvation media (F12K+1% FBS) was added to each well. After 24 hours, 15 μl of test agent dissolved in 1% DMSO in starvation medium or this vehicle alone was added into each treatment well; the final DMSO concentration was 0.1%. One hour later, 30 μl of VEGF (30 ng/ml) in starvation media was added to all wells except those containing untreated controls; the final VEGF concentration was 6 ng/ml. Cellular proliferation was quantified 72 hours later by MTT dye reduction, at which time cells were exposed for 4 hours MTT (Promega Corp.). Dye reduction was stopped by addition of a stop solution (Promega Corp.) and absorbance at 595 λ was determined on a 96-well spectrophotometer plate reader.

[4] = target: T2, phosphorylated VEGF-R2Δ50 (FLVK-P) (Homo sapiens, UniProt P35968, DEL940-989/E990V); assay: VEGF-R2 coupled spectrophotometric assay, phosphorylated construct (FLVK-P); format: biochemical; conditions: for inhibition at 0.05 µM: @ 50 nM, read-out: FLVK-P percent inhibition
T2 construct: VEGF-R2Δ50 contains residues 806-939 and 990-1171; made in house; host or cells: baculovirus/insect cells
Method in brief: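 Baculovirus-expressed VEGF-R2Δ50 (residues 806-939/990-1171, E990V), optionally autophosphorylated; ADP formation coupled via PK/LDH to NADH oxidation at 340 nm, pH 7.5 Hepes. FLVK-P: 1 mM ATP, 5.1 mM poly(E4Y1), 25 mM MgCl2; FLVK: 3 mM ATP, 20 mM poly(E4Y1), 60 mM MgCl2, 2 mM MnCl2. Ki from activity over compound concentrations.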

LCK tyrosine kinase = target: T3, LCK tyrosine kinase (Homo sapiens, UniProt P06239, C224D/P223M); assay: LCK spectrophotometric assay; format: biochemical; conditions: @ 1 μM; read-out: LCK-P percent inhibition;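 also: recombinant LCK kinase activity on poly(E4Y1), ADP formation coupled through PK/LDH to NADH oxidation, followed as absorbance loss at 340 nm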
T3 construct: starting from amino acid residue 223 to the end of the protein at residue 509; made in house; host or cells: insect cells
T3 sequence (P06239 223-509 P223M/C224D): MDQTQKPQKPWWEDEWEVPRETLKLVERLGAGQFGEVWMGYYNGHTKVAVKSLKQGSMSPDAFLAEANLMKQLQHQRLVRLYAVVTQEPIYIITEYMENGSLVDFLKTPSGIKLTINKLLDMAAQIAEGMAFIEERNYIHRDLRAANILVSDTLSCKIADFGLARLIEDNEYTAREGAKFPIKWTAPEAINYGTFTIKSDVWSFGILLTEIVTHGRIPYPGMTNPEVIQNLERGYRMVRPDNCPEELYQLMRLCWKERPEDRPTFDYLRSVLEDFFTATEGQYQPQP

T2 sequence (P35968 with tags, fused parts or gaps DEL940-989/E990V limits assumed): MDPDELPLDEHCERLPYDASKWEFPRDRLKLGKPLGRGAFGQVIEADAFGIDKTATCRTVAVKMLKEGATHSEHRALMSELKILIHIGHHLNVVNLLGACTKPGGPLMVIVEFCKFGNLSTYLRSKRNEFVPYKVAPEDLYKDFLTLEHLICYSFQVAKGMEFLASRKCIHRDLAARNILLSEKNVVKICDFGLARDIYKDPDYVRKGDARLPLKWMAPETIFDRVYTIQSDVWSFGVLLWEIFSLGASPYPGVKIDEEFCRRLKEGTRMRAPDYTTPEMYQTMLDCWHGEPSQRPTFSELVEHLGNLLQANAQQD
T1 sequence (P35968 with tags, fused parts or gaps DEL940-989/E990V limits assumed): as above

Row | Compound | IC50 [1] [nM] | melting point | Ki [4] [nM] | IC50 ([3]; HUVEC) [nM] | other results
1 | COc1cc(NC(=O)c2cccc(CSc3nc(NC(C)=O)n[nH]3)c2)cc(OC)c1OC [Example C-3, N-(3,4,5-Trimethoxyphenyl)-3-[(5-acetylamino-2H-[1,2,4]triazol-3-yl)sulfanylmethyl]benzamide] |  | 196 to 201 °C |  |  | 
2 | Cc1ccc2cc(NC(=O)c3cccc(CSc4cnccn4)c3)ccc2n1 [Example A-6, N-(2-Methylquinolin-6-yl)-3-[(pyrazin-2-yl)sulfanylmethyl]benzamide] |  | 133 to 135 °C | 1050 |  | 
3 | CC(=O)Oc1ccc(C(=O)Nc2cccc(OCc3cccnc3)c2)cc1C(C)(C)C [Example X-2, 4-Acetoxy-3-t-butyl-N-[3-(pyridin-3-ylmethoxy)phenyl]-benzamide] |  | 58 to 62 °C |  |  | Ki ([2]; unphosphorylated VEGF-R2 construct): 9.1 nM
4 | Cc1cc(NC(=O)c2cccc(OCc3ccc(N)nc3)c2)ccc1C(C)C [Example L-1, 3-(6-Aminopyridin-3-yl)methoxy-N-(4-Isopropyl-3-methyl-phenyl)-benzamide] |  | 78 to 81 °C |  |  | 
5 | Cc1ccc2cc(NC(=O)c3cccc(OCc4ccc(N)nc4)c3)ccc2n1 [Example M-1, 3-(6-Aminopyridin-3-yl)methoxy-N-(2-methyl-quinolin-6-yl)-benzamide] |  | 189 to 192 °C | 52 |  | 
6 | O=C(Nc1ccc2ncccc2c1)c1cccc(CSc2ncnc3[nH]ncc23)c1 [Example B-3, N-(Quinolin-6-yl)-3-[(1H-pyrazolo[3,4-d]pyrimidin-4-yl)sulfanylmethyl]benzamide] |  | 236 to 240 °C (dec.) | 406 |  | 
7 | Cc1cc(NC(=O)c2cccc(OCc3cnc(NNC(=O)OC(C)(C)C)c4ccccc34)c2)ccc1C(C)C [Example P-1, N′-{4-[3-(4-isopropyl-3-methyl-phenylcarbamoyl)-phenoxymethyl]-isoquinolin-1-yl}-hydrazinecarboxylic acid tert-butyl ester] |  | 125 to 129 °C |  |  | inhibition at 0.05 µM [4]: 4%
8 | Cc1ccc2cc(NC(=O)c3cccc(SCc4cc(-c5ccccc5)n[nH]4)c3)ccc2n1 [Example F-2] | > 10000 | 99 to 101 °C | 14.7 | 650 | 
9 | O=C(Nc1ccc(N2CCNCC2)c(C(F)(F)F)c1)c1ccc(F)c(OCc2cnc3ccccc3c2)c1 (as salt: hydrochloride) [Example R-17, 4-Fluoro-N-(4-piperazin-1-yl-3-trifluoromethyl-phenyl)-3-(quinolin-3-ylmethoxy)-benzamide] |  | 76 to 78 °C |  |  | 
10 | COc1cc(NC(=O)c2cccc(CSc3nc(NC#N)n[nH]3)c2)cc(OC)c1OC [Example C-1, 3-[(5-Cyanoamino-2H-[1,2,4]triazol-3-yl)sulfanylmethyl]-N-(3,4,5-trimethoxyphenyl)benzamide] |  | > 165 °C (dec.) |  |  | 

More lines, main results first:

Row | IC50 [1] [nM] | melting point | Ki [4] [nM] | Compound | IC50 ([3]; HUVEC) [nM] | other results
11 | 2600 | 61 to 66 °C |  | CN1CCN(c2ccc(NC(=O)c3ccc(F)c(OCc4cccnc4)c3)cc2C(F)(F)F)CC1 [Example R-20] | 155 | inhibition at 0.05 µM [2]: 19%
12 |  | 112 to 119 °C | 785 | COc1cc(NC(=O)c2cccc(CSc3cnccn3)c2)cc(OC)c1OC [Example A-1, N-(3,4,5-Trimethoxyphenyl)-3-[(pyrazin-2-yl)sulfanylmethyl]benzamide] |  | 
13 |  | 138 to 140 °C |  | O=C(Nc1cccc(OCc2cccnc2)c1)N1CCCC1 [Example Y-1, 1-[3-(pyridin-3-ylmethoxy)phenylcarbamoyl]pyrrolidine] |  | inhibition at 0.05 µM [2]: 6%; IC50 ([3]; VEGF-stimulated HUVEC proliferation): > 700 nM
14 |  | > 150 °C (dec.) |  | COC(=O)Nc1n[nH]c(SCc2cccc(C(=O)Nc3cc(OC)c(OC)c(OC)c3)c2)n1 [Example C-2, 3-[(5-(Methoxycarbonylamino)-2H-[1,2,4]triazol-3-yl)sulfanylmethyl]-N-(3,4,5-Trimethoxyphenyl)benzamide] |  | 
15 | 5600 | 81 to 84 °C |  | O=C(Nc1ccc(N2CCOCC2)c(C(F)(F)F)c1)c1ccc(F)c(OCc2cnc3ccccc3c2)c1 [Example R-16, 4-Fluoro-N-(4-morpholin-4-yl-3-trifluoromethyl-phenyl)-3-(quinolin-3-ylmethoxy)-benzamide] | 13 | Ki [2]: 2.3 nM
16 | > 10000 |  | 15 | COc1cc(NC(=O)c2cccc(CSc3ncnc4[nH]ncc34)c2)cc(C(F)(F)F)c1 [Example B-16, 3-[(1H-Pyrazolo[3,4-d]pyrimidin-4-yl)sulfanylmethyl]-N(3-trifluoromethyl-5-methoxyphenyl)-benzamide] | 370 | inhibition at 1 µM (LCK tyrosine kinase): 9%
17 |  | 103 to 107 °C |  | O=C(Nc1ccc(N2CCNCC2)c(C(F)(F)F)c1)c1ccc(F)c(OCc2cncc3ccccc23)c1 (as salt: hydrochloride) [Example R-15, 4-Fluoro-N-(4-piperazin-1-yl-3-trifluoromethyl-phenyl)-3-(isoquinolin-4-ylmethoxy)-benzamide] |  | 
18 | > 10000 | 143 to 144 °C | 12.4 | Cc1cc(NC(=O)c2cccc(CCc3cccnc3)c2)ccc1C(C)C [Example U-2, N-(4-Isopropyl-3-methyl-phenyl)-3-(2-pyridin-3-yl-ethyl)-benzamide] | 100 | 
19 |  | 125 to 131 °C |  | COc1cccc(/C=N/Nc2ncc(COc3cccc(C(=O)Nc4ccc(C(C)C)c(C)c4)c3)c3ccccc23)c1 [Example Q-1, N-(4-Isopropyl-3-methyl-phenyl)-3-{1-[N′-(3-methoxy-benzylidene)-hydrazino]-isoquinolin-4-ylmethoxy}-benzamide] | 100 to 300 | inhibition at 0.05 µM [4]: 17%
20 |  | 58 to 62 °C |  | O=C(Nc1cccc(OCc2cccnc2)c1)N1CCOCC1 (as salt: salt) [Example Y-2, 4-[3-(pyridin-3-ylmethoxy)phenylcarbamoyl]morpholine] |  | 
21 | > 10000 | 98 to 101 °C |  | CC(=O)Nc1ccc(COc2cccc(C(=O)Nc3ccc(C(C)C)c(C)c3)c2)cn1 [Example N-2, 3-(6-Acetylaminopyridin-3-yl)methoxy-N-(4-Isopropyl-3-methyl-phenyl)-benzamide] | > 100 | inhibition at 0.05 µM [2]: 8%
22 | > 10000 |  | 12.1 | CC1(C)OC(C)(C)c2cc(NC(=O)c3cccc(OCc4cncc5ccccc45)c3)ccc21 [Example R-10, 3-(Isoquinolin-4-ylmethoxy)-N-(1,1,3,3-tetramethyl-1,3-dihydroisobenzofuran-5-yl)-benzamide] | 28 | inhibition at 1 µM (LCK tyrosine kinase): 23%; Ki [2]: 6.9 nM
23 | > 10000 | 98 to 102 °C | 1.78 | Cc1ccc2cc(NC(=O)c3cccc(CCc4cc(Nc5ccccc5)n[nH]4)c3)ccc2n1 [Example G-2, N-(2-Methylquinolin-6-yl)-3-[2-(5-phenylamino-2H-pyrazol-3-yl)ethyl]benzamide] | 120 | 
24 | 9900 |  | 9.93 | O=C(Nc1cccc(OC(F)(F)F)c1)c1cccc(OCc2cncc3ccccc23)c1 [Example R-4, 3-(Isoquinolin-4-ylmethoxy)-N-(3-trifluoromethoxy-phenyl)-benzamide] | 88 | inhibition at 1 µM (LCK tyrosine kinase): 28%; Ki [2]: 2.4 nM
25 |  | 102 to 105 °C | 1640 | Cc1ccc2cc(NC(=O)c3cccc(SCc4cnccn4)c3)ccc2n1 [Example D-2, N-(2-Methylquinolin-6-yl)-3-[(pyrazin-2-yl)methylsulfanyl]benzamide] |  | 

Source: patent publication US6635641B2 (Agouron Pharmaceuticals, Inc., priority 2000, dated 2003)
